This note sets out measurements from patent US10435405B2, “Pyrazolopyridine compounds and uses thereof” (Incyte Corporation, priority 2016, dated 2019).

pKi: −log10 of the molar value.

In the test the target is HPK1 (Homo sapiens (Human), UniProt Q92918). In words: HPK1 Kinase Binding Assay. The protocol: A stock solution of 1 mM test compound was prepared in DMSO. The compound plate was prepared by 3-fold and 11-point serial dilutions. 0.1 μL of the compound in DMSO was transferred from the compound plate to the white 384 well polystyrene plates. The assay buffer contained 50 mM HEPES, pH 7.5, 0.01% Tween-20, 5 mM MgCl2, 0.01% BSA, and 5 mM DTT. 5 μl of 4 nM active HPK1 (SignalChem M23-11G) prepared in the buffer was added to the plate. The enzyme concentration given was based on the given stock concentration reported by the vender. 5 μl of 18 nM tracer 222 (ThermoFisher PV6121) and 4 nM LanthaScreen Eu-Anti GST antibody (ThermoFisher PV5595) were added. After one hour incubation at 25° C., the plates were read on a PHERAstar FS plate reader (BMG Labtech). Ki values were determined.
Chain of HPK1 (Q92918 1-346): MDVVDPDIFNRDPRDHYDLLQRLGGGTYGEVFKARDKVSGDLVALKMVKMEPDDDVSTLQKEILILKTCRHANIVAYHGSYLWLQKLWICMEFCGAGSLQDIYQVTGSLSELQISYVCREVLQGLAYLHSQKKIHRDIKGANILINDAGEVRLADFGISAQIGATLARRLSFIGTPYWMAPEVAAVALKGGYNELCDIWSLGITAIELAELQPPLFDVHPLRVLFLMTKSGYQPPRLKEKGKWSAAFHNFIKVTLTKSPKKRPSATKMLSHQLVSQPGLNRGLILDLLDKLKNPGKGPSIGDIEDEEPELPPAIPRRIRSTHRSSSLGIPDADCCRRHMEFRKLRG
As usually defined, the pKi is the negative decadic logarithm of the Ki, by convention in mol/L. Read a low pKi as a large Ki. Compound `CCN1CCN(c2cccc(C(=O)Nc3n[nH]c4cnc(-c5c(F)cccc5OC)cc34)c2)CC1` [Example 20, 3-(4-Ethylpiperazin-1-yl)-N-(5-(2-fluoro-6-methoxyphenyl)-1H-pyrazolo[3,4-c]pyridin-3-yl)benzamide] showed a pKi of at least 7.00.

On to `COc1cccc(F)c1-c1cc2c(NC(=O)c3cccc(N4CCN(CC(F)(F)F)C(=O)C4)c3)n[nH]c2cn1` [Example 21, N-(5-(2-Fluoro-6-methoxyphenyl)-1H-pyrazolo[3,4-c]pyridin-3-yl)-3-(3-oxo-4-(2,2,2-trifluoroethyl)piperazin-1-yl)benzamide], for which the pKi was at least 7.00.

Regarding `COc1cccc(F)c1-c1cc2c(NC(=O)c3cccc(N4CCN(S(C)(=O)=O)CC4)c3)n[nH]c2cn1` [Example 22, N-(5-(2-Fluoro-6-methoxyphenyl)-1H-pyrazolo[3,4-c]pyridin-3-yl)-3-(4-(methylsulfonyl)piperazin-1-yl)benzamide], the pKi was at least 7.00.

Regarding `COc1cccc(F)c1-c1cc2c(NC(=O)c3cccc(N4CCNCC4)c3)n[nH]c2cn1` [Example 23, N-(5-(2-fluoro-6-methoxyphenyl)-1H-pyrazolo[3,4-c]pyridin-3-yl)-3-(piperazin-1-yl)benzamide], the pKi is at least 7.00.

`COc1cccc(F)c1-c1cc2c(NC(=O)c3ccc(N4CCOCC4)cc3)n[nH]c2cn1` [Example 24, N-(5-(2-Fluoro-6-methoxyphenyl)-1H-pyrazolo[3,4-c]pyridin-3-yl)-4-morpholinobenzamide] gave a pKi of at least 7.00.

Compound `COc1cccc(F)c1-c1cc2c(NC(=O)c3ccc(N4CCNC(=O)C4)cc3)n[nH]c2cn1` [Example 25, N-(5-(2-Fluoro-6-methoxyphenyl)-1H-pyrazolo[3,4-c]pyridin-3-yl)-4-(3-oxopiperazin-1-yl)benzamide] gave a pKi of at least 7.00.

`COc1cccc(F)c1-c1cc2c(NC(=O)c3ccc(N4CCN(C)CC4)cc3)n[nH]c2cn1` [Example 26, N-(5-(2-Fluoro-6-methoxyphenyl)-1H-pyrazolo[3,4-c]pyridin-3-yl)-4-(4-methylpiperazin-1-yl)benzamide] showed a pKi of at least 7.00.

The compound `COc1cccc(F)c1-c1cc2c(NC(=O)c3ccc(N4CCN(C)C(=O)C4)cc3)n[nH]c2cn1` [Example 27, N-(5-(2-fluoro-6-methoxyphenyl)-1H-pyrazolo[3,4-c]pyridin-3-yl)-4-(4-methyl-3-oxopiperazin-1-yl)benzamide] showed a pKi of at least 7.00.

The compound `CCN1CCN(c2ccc(C(=O)Nc3n[nH]c4cnc(-c5c(F)cccc5OC)cc34)cc2)CC1` [Example 28, 4-(4-Ethylpiperazin-1-yl)-N-(5-(2-fluoro-6-methoxyphenyl)-1H-pyrazolo[3,4-c]pyridin-3-yl)benzamide] gave a negative logarithm of the Ki (pKi) of at least 7.00.

Regarding `COc1cccc(F)c1-c1cc2c(NC(=O)c3ccc(N4CCN(CC(F)(F)F)C(=O)C4)cc3)n[nH]c2cn1` [Example 29, N-(5-(2-Fluoro-6-methoxyphenyl)-1H-pyrazolo[3,4-c]pyridin-3-yl)-4-(3-oxo-4-(2,2,2-trifluoroethyl)piperazin-1-yl)benzamide], the negative-log Ki (pKi) was at least 7.00.

In the case of `COc1cccc(F)c1-c1cc2c(NC(=O)c3ccc(N4CCN(C(C)C)CC4)cc3)n[nH]c2cn1` [Example 30, N-(5-(2-Fluoro-6-methoxyphenyl)-1H-pyrazolo[3,4-c]pyridin-3-yl)-4-(4-isopropylpiperazin-1-yl)benzamide], the pKi is at least 7.00.

Turning to `COc1cccc(F)c1-c1cc2c(NC(=O)c3ccc(N4CCN(C5CC5)C(=O)C4)cc3)n[nH]c2cn1` [Example 31, 4-(4-Cyclopropyl-3-oxopiperazin-1-yl)-N-(5-(2-fluoro-6-methoxyphenyl)-1H-pyrazolo[3,4-c]pyridin-3-yl)benzamide], the pKi was at least 7.00.

`COc1cccc(F)c1-c1cc2c(NC(=O)c3ccc(N4CCN(S(C)(=O)=O)CC4)cc3)n[nH]c2cn1` [Example 32, N-(5-(2-Fluoro-6-methoxyphenyl)-1H-pyrazolo[3,4-c]pyridin-3-yl)-4-(4-(methylsulfonyl)piperazin-1-yl)benzamide] had a pKi of at least 7.00.

In the case of `COc1cccc(F)c1-c1cc2c(NC(=O)c3ccc(N4CCNCC4)cc3)n[nH]c2cn1` [Example 33, N-(5-(2-Fluoro-6-methoxyphenyl)-1H-pyrazolo[3,4-c]pyridin-3-yl)-4-(piperazin-1-yl)benzamide], the pKi is at least 7.00.

Compound `COc1cccc(F)c1-c1cc2c(-c3cnc(N4CCOCC4)s3)n[nH]c2cn1` [Example 34, 4-(5-(5-(2-Fluoro-6-methoxyphenyl)-1H-pyrazolo[3,4-c]pyridin-3-yl)thiazol-2-yl)morpholine] showed a pKi of at least 7.00.

Regarding `COc1cccc(F)c1-c1cc2c(-c3cc(C)no3)n[nH]c2cn1` [Example 35, 5-(5-(2-Fluoro-6-methoxyphenyl)-1H-pyrazolo[3,4-c]pyridin-3-yl)-3-methylisoxazole], the pKi is at least 7.00.

The compound `COc1cccc(F)c1-c1cc2c(-c3cnc(C)s3)n[nH]c2cn1` [Example 36, 5-(5-(2-Fluoro-6-methoxyphenyl)-1H-pyrazolo[3,4-c]pyridin-3-yl)-2-methylthiazole] showed a pKi of at least 7.00.

Regarding `COc1cccc(F)c1-c1cc2c(N3CCN(c4ccc(Br)cc4)C(=O)C3)n[nH]c2cn1` [Example 37, 1-(4-Bromophenyl)-4-(5-(2-fluoro-6-methoxyphenyl)-1H-pyrazolo[3,4-c]pyridin-3-yl)piperazin-2-one], the pKi is at least 7.00.

`COc1cccc(F)c1-c1cc2c(N3CCc4ccc(C#N)cc4C3)n[nH]c2cn1` [Example 38, 2-(5-(2-Fluoro-6-methoxyphenyl)-1H-pyrazolo[3,4-c]pyridin-3-yl)-1,2,3,4-tetrahydroisoquinoline-7-carbonitrile] gave a pKi of at least 7.00.

Take `COc1cccc(F)c1-c1cc2c(N3CCN(c4ccc(C#N)cc4)CC3)n[nH]c2cn1` [Example 39, 4-(4-(5-(2-Fluoro-6-methoxyphenyl)-1H-pyrazolo[3,4-c]pyridin-3-yl)piperazin-1-yl)benzonitrile]: the pKi is at least 7.00.

`COc1cccc(F)c1-c1cc2c(N3CCN(c4ccncc4)CC3)n[nH]c2cn1` [Example 40, 5-(2-Fluoro-6-methoxyphenyl)-3-(4-(pyridin-4-yl)piperazin-1-yl)-1H-pyrazolo[3,4-c]pyridine] gave a pKi of at least 7.00.

Consider `COc1cccc(F)c1-c1cc2c(NCc3ccc(N4CCN(C)CC4)cc3)n[nH]c2cn1` [Example 41, 5-(2-Fluoro-6-methoxyphenyl)-N-(4-(4-methylpiperazin-1-yl)benzyl)-1H-pyrazolo[3,4-c]pyridin-3-amine], for which the negative-log Ki (pKi) is 5.70 to 6.30.

`CN1CCN(c2ccc(-c3n[nH]c4cnc(-c5cc(F)cc(C6(CN)CC6)c5)cc34)cc2)CC1` [Example 42, 1-[1-(3-Fluoro-5-{3-[4-(4-methylpiperazin-1-yl)phenyl]-1H-pyrazolo[3,4-c]pyridin-5-yl}phenyl)cyclopropyl]methanamine] gave a pKi of at least 7.00.

For `COc1cccc(F)c1-c1cc2c(-c3ccc(N4CCN(C)CC4)cc3)n[nH]c2cn1` [Example 43, 5-(2-Fluoro-6-methoxyphenyl)-3-(4-(4-methylpiperazin-1-yl)phenyl)-1H-pyrazolo[3,4-c]pyridine], the pKi is at least 7.00.

`CN1CCN(c2ccc(-c3n[nH]c4cnc(-c5c(F)cccc5F)cc34)cc2)CC1` [Example 44, 5-(2,6-Difluorophenyl)-3-(4-(4-methylpiperazin-1-yl)phenyl)-1H-pyrazolo[3,4-c]pyridine] showed a pKi of at least 7.00.

Regarding `Cc1cccc(C)c1-c1cc2c(-c3ccc(N4CCN(C)CC4)cc3)n[nH]c2cn1` [Example 45, 5-(2,6-Dimethylphenyl)-3-(4-(4-methylpiperazin-1-yl)phenyl)-1H-pyrazolo[3,4-c]pyridine], the pKi was at least 7.00.

Compound `CN1CCN(c2ccc(-c3n[nH]c4cnc(-c5c(F)cc(F)cc5F)cc34)cc2)CC1` [Example 46, 3-(4-(4-Methylpiperazin-1-yl)phenyl)-5-(2,4,6-trifluorophenyl)-1H-pyrazolo[3,4-c]pyridine] showed a pKi of at least 7.00.

`CN1CCN(c2ccc(-c3n[nH]c4cnc(-c5c(F)cccc5Cl)cc34)cc2)CC1` [Example 47, 5-(2-Chloro-6-fluorophenyl)-3-(4-(4-methylpiperazin-1-yl)phenyl)-1H-pyrazolo[3,4-c]pyridine]: the pKi is at least 7.00.

`CN1CCN(c2ccc(-c3n[nH]c4cnc(-c5c(F)cc(O)cc5F)cc34)cc2)CC1` [Example 48, 3,5-Difluoro-4-(3-(4-(4-methylpiperazin-1-yl)phenyl)-1H-pyrazolo[3,4-c]pyridin-5-yl)phenol] gave a negative logarithm of the Ki (pKi) of at least 7.00.

`Cc1cccc(F)c1-c1cc2c(-c3ccc(N4CCN(C)CC4)cc3)n[nH]c2cn1` [Example 49, 5-(2-Fluoro-6-methylphenyl)-3-(4-(4-methylpiperazin-1-yl)phenyl)-1H-pyrazolo[3,4-c]pyridine] had a pKi of at least 7.00.

The compound `CN1CCN(c2ccc(-c3n[nH]c4cnc(-c5c(Cl)cccc5C(F)(F)F)cc34)cc2)CC1` [Example 50, 5-(2-Chloro-6-(trifluoromethyl)phenyl)-3-(4-(4-methylpiperazin-1-yl)phenyl)-1H-pyrazolo[3,4-c]pyridine] had a pKi of at least 7.00.

With `CCOc1cccc(F)c1-c1cc2c(-c3ccc(N4CCN(C)CC4)cc3)n[nH]c2cn1` [Example 51, 5-(2-Ethoxy-6-fluorophenyl)-3-(4-(4-methylpiperazin-1-yl)phenyl)-1H-pyrazolo[3,4-c]pyridine], the pKi was at least 7.00.

In the case of `COc1cccc(Cl)c1-c1cc2c(-c3ccc(N4CCN(C)CC4)cc3)n[nH]c2cn1` [Example 52, 5-(2-Chloro-6-methoxyphenyl)-3-(4-(4-methylpiperazin-1-yl)phenyl)-1H-pyrazolo[3,4-c]pyridine], the pKi was at least 7.00.
